# US7888328B2, “Oral formulations of cladribine” (Ares Trading S.A., priority 2003, dated 2011)
# Key:
# [1] = Clinical study, relative bioavailability: plasma cladribine after oral formulations vs subcutaneous administration; type: in vivo, human (patients with MS); settings: human, sc, 3.0 mg subcutaneous, single dose, n = 12
# Procedure: This study was a 2 center, open-label, randomized, 4-way crossover single dose study using twelve patients with MS. Patients received randomly three different fixed oral doses (3.0 mg) and a fixed subcutaneous dose of 3.0 mg. The four treatment days were separated by a drug-free interval of at least 5 days. In each treatment period, blood samples were collected over a 24-hour period for evaluation of plasma cladribine.
# The plasma concentration of cladribine was measured by a HPLC/MS/MS method. […] The limit of quantification was 100 pg/ml. Analysis of samples was carried out in 16 runs.
# 576 clinical plasma samples were analyzed and concentration values of cladribine were determined.
# [2] = Phase solubility study of cladribine in HPβCD solutions; type: physicochemical; settings: aqueous hydroxypropyl-β-cyclodextrin (HPβCD) solution, aqueous with cosolvent or surfactant or cyclodextrin, thermodynamic from solid; with about 0.14 mole of HPβCD; complexation conditions of EXAMPLE 2; read-out: cladribine maintained dissolved (phase solubility)
# Procedure: Generally, the complexation is conducted with heating, for example at about 45 to about 60° C. for a significant period of time, e.g., at least 6-9 hours; it is believed that even better results can be obtained by heating at up to about 80° C. for up to 24 hours. Excess precipitated cladribine is then removed and the cladribine concentration is subsequently measured. This concentration represents the amount of cladribine solubilized for a given amorphous cyclodextrin concentration. […] Consequently, the data points correspond to the amount of cladribine dissolved in aqueous HPβCD or other amorphous cyclodextrin under the selected conditions; when later lyophilized, the solution yields a complex cladribine-cyclodextrin complex which is an intimate amorphous admixture of (a) an amorphous inclusion complex of cladribine with an amorphous cyclodextrin and (b) amorphous free cladribine associated with amorphous cyclodextrin as a non-inclusion complex. If equilibrium conditions are reached during the complexation, the amorphous cladribine-cyclodextrin complex will be saturated with cladribine.
# A phase solubility study can be carried out as follows. […] The excess, undissolved cladribine is removed by filtration. […] This process is repeated with different known concentrations of HPβCD until several data points are obtained. […]
# [3] = Clinical study, dose response and absolute bioavailability: plasma cladribine after oral doses vs intravenous infusion; type: in vivo, human (patients with MS); settings: n = 26; for AUC(0-inf) / AUC(0-t) / Cmax / Tmax / half-life: human, plasma; for AUC(0-inf) / AUC(0-t) / Cmax: Geom Mean; for Tmax / half-life: Mean ± SD
# From the text: The objective of this study was to assess the systemic availability of cladribine after oral administration in two different fixed oral doses, in comparison with one fixed intravenous administration (reference formulation) in patients with MS (multiple sclerosis), and to evaluate the safety and tolerability of cladribine in this population.
# This study was a 3 center, open-label, randomized, 3-way crossover single dose study using twenty-six patients with MS. […] The three treatment days were separated by a drug-free interval of at least 5 days. In each treatment period blood samples were collected over a 24-hour period for evaluation of plasma cladribine.
# The plasma concentrations of cladribine were measured by a HPLC/MS/MS method. […] The limit of quantification was 100 pg/ml. Analysis of samples was carried out in 16 runs. Except the first run (which had to be rejected because of equipment failure), all other runs could be accepted. No calibrator had to be excluded from fitting of the calibration curve and accuracy of each quality control sample met the GLP requirements.
# 858 clinical plasma samples were analyzed and concentration values of cladribine were determined. The results were compiled and are summarized in the tables below [TABLES VII through X]. In these tables, the following definitions are applicable: Tmax is the time to reach maximum concentration in the plasma; T1/2 is the half-life of cladribine in the plasma; Cmax is the maximum concentration of cladribine in the plasma; AUCinf is the area under the curve for the measured data from zero extrapolated to infinity; AUCt is the area under the curve for the measured data (from zero to the last time point); Geom Mean is the geometric mean; CV is the coefficient of variation (relative standard deviation); LL is the lower limit; UL is the upper limit; σ^2 is the mean variance; σB^2 is the mean variance between subjects; σW^2 is the mean variance within subjects; CVT is the total coefficient of variation; and CVW is the coefficient of variation within subjects.
# [4] = Oral Administration 10.0 mg vs 3.0 mg IV, dose normalized
# [5] = Oral Administration 30.0 mg vs 3.0 mg IV, dose normalized
# [6] = Oral Administration 3.0 mg (Batch N0120 3.0 mg tablets)
# [7] = Oral Administration 10.0 mg (Batch N0126 10.0 mg tablets)
smiles,measurement,setting,value
"Nc1nc(Cl)nc2c1ncn2[C@H]1C[C@H](O)[C@@H](CO)O1 [Cladribine, 2-chloro-2′-deoxyadenosine]",AUC(0-inf),[1]; Geom Mean,57.3 ng·h/mL
same,AUC(0-t),[1]; Geom Mean,54.7 ng·h/mL
same,Cmax,[1]; Geom Mean,23.2 ng/mL
same,Tmax,[1]; Mean ± SD,0.313 ± 0.113 h
same,half-life,[1]; Mean ± SD,6.69 ± 2.01 h
same,solubility,[2],~49 mM
same,Ratio of Oral to I.V. AUCinf,[3]; [4],39.1
same,Ratio of Oral to I.V. AUCt,[3]; [4],39.4
same,Ratio of Oral to I.V. AUCinf,[3]; [5],34.5
same,Ratio of Oral to I.V. AUCt,[3]; [5],34.0
same,CVT (total coefficient of variation) of AUCinf,[3]; dose-adjusted PK parameter,29.2%
same,CVT (total coefficient of variation) of AUCt,[3]; dose-adjusted PK parameter,29.8%
same,CVT (total coefficient of variation) of Cmax,[3]; dose-adjusted PK parameter,43.0%
same,CVW (coefficient of variation within subjects) of AUCinf,[3]; dose-adjusted PK parameter,18.3%
same,CVW (coefficient of variation within subjects) of AUCt,[3]; dose-adjusted PK parameter,19.1%
same,CVW (coefficient of variation within subjects) of Cmax,[3]; dose-adjusted PK parameter,37.5%
same,AUC(0-inf),[3]; 3.0 mg IV infusion (1 hour),58.5 ng·h/mL
same,AUC(0-t),[3]; 3.0 mg IV infusion (1 hour),56.4 ng·h/mL
same,Cmax,[3]; 3.0 mg IV infusion (1 hour),21.4 ng/mL
same,Tmax,[3]; 3.0 mg IV infusion (1 hour),0.817 ± 0.397 h
same,half-life,[3]; 3.0 mg IV infusion (1 hour),6.5 ± 1.27 h
same,AUC(0-inf),[3]; [6],20.2 ng·h/mL
same,AUC(0-t),[3]; [6],19.2 ng·h/mL
same,Cmax,[3]; [6],5.61 ng/mL
same,Tmax,[3]; [6],0.548 ± 0.3 h
same,half-life,[3]; [6],5.85 ± 1.18 h
same,AUC(0-inf),[3]; [7],76.7 ng·h/mL
same,AUC(0-t),[3]; [7],74.5 ng·h/mL
same,Cmax,[3]; [7],21.2 ng/mL
same,Tmax,[3]; [7],0.558 ± 0.204 h
same,half-life,[3]; [7],5.6 ± 0.75 h
same,Ratio 10.0 mg/3.0 mg AUCinf,"[3]; oral doses, dose normalized",113.3
same,Ratio 10.0 mg/3.0 mg AUCt,"[3]; oral doses, dose normalized",115.8
same,Ratio 10.0 mg/3.0 mg Cmax,"[3]; oral doses, dose normalized",112.6
